Reference: ChEMBL document CHEMBL5046282, “Discovery of Brain-Penetrant Glucosylceramide Synthase Inhibitors with a Novel Pharmacophore” (J Med Chem, 2022)
pIC50: −log10 of the molar value. Values after ≈ are worked out from the molar mass of the structure shown. Active and inactive are the calls of the source. The rule behind the calls is not given here.

What was measured:
[1] = 1-Octanol/aqueous buffer partition coefficient, logD of the compound at pH 7.4 by chromatographic method; type: physicochemical
[2] = target: T1, Ceramide glucosyltransferase (Homo sapiens, UniProt Q16739); assay: Inhibition of human GCS using C8-ceramide and UDP-glucose as substrate incubated for 1 hr by RapidFire mass spectrometry
T1 sequence (Q16739 whole entry): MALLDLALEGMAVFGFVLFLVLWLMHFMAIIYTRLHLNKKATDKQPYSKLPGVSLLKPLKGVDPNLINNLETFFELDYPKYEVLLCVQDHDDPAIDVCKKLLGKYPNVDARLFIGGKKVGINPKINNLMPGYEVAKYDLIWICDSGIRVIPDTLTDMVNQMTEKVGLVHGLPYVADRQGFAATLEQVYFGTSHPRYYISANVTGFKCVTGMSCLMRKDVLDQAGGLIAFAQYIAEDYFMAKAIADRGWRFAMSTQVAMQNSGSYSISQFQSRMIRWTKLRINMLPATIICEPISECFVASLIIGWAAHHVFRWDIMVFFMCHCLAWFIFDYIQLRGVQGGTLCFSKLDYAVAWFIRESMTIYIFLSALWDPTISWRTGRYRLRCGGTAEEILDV

[3] = Efflux ratio of apparent permeability from basolateral to apical side over apical to basolateral side in dog MDCK-MDR1 cells at 1 uM measured after 1 hr by LC-MS/MS analysis; type: ADME, cell-based, Canis lupus familiaris
hERG = hERG (Homo sapiens, UniProt Q12809); assay: Inhibition of hERG expressed in CHO-K1 cells at 10 uM incubated for 5 mins by whole cell-automated voltage clamp analysis; type: toxicity, cell-based; conditions: CHO-K1 cells expressing hERG
hERG, sequence (Q12809 whole entry): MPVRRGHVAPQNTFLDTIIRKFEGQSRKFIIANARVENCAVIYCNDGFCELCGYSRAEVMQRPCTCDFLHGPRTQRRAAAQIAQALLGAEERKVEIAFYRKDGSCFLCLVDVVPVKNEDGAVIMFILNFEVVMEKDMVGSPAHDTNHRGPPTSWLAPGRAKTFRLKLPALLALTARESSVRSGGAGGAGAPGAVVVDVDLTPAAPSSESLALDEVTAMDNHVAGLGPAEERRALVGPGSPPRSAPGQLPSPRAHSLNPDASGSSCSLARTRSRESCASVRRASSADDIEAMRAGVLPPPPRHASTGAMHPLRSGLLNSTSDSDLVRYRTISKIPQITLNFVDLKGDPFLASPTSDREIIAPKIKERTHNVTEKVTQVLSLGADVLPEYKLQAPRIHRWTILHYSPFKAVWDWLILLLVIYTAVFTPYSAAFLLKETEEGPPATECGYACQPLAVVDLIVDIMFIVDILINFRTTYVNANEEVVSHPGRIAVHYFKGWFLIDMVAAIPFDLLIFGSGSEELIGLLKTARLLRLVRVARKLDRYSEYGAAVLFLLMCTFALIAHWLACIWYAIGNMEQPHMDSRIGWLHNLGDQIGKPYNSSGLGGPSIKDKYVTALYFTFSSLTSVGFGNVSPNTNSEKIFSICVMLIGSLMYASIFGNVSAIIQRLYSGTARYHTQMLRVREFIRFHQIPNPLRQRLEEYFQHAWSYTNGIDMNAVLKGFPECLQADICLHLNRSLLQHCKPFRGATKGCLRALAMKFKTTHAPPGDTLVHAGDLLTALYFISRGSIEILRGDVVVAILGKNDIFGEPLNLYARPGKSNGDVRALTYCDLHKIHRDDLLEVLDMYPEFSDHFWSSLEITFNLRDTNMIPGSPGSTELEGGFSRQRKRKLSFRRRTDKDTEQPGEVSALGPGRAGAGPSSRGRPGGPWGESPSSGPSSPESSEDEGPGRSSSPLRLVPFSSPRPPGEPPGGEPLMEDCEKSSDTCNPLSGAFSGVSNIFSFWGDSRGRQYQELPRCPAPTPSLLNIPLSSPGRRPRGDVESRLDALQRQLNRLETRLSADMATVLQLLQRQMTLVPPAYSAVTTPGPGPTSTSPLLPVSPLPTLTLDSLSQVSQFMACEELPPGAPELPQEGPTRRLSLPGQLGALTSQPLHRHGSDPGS

[4] = Kinetic solubility of the compound in JP2 fluid at pH 6.8 by precipitation method; type: physicochemical; conditions: read-out: Kinetic_solubility
[5] = Intrinsic clearance in mouse liver microsomes at 1 uM in presence of NADPH generating system assessed per mg protein by LC-MS/MS analysis; type: ADME, Microsome; conditions: read-out: CLH
[6] = target: T2, Ceramide glucosyltransferase (Homo sapiens) (UniProt Q16739); assay: Uncompetitive inhibition of GCS (unknown origin) using 1 to 70 uM C8-ceramide and 0.1 to 200 uM UDP-glucose as substrate incubated for 1 hr by RapidFire mass spectrometry
T2 sequence (whole entry): T1 sequence (Q16739 whole entry)

chromatographic logD [1]	pIC50 [2]	efflux ratio at 1 h, 1 µM [3]	solubility kinetic [4]	microsomal CLint at 1 µM [5]	inhibition [6]	SMILES	inhibition at 5 min, 10 µM (hERG)
3.87	5.62	–	< 0.1 µg/mL	–	–	COc1ccccc1-c1cccc2c1CN(c1ccccc1)C2=O	–
–	6.00	–	–	509 µL/min/mg	–	COc1ccccc1-c1nccc2c1CN(c1ccc(F)cc1)C2=O	–
–	5.36	–	–	584 µL/min/mg	–	COc1ccccc1-c1nccc2c1CN(c1cccc(C)c1)C2=O	–
–	< 4.00	–	–	> 768 µL/min/mg	–	COc1cccc(-c2nccc3c2CN(c2ccccc2)C3=O)c1	–
2.94	5.89	–	0.9 µg/mL (≈ 2.84 µM)	–	–	COc1ccccc1-c1cncc2c1CN(c1ccccc1)C2=O	–
–	< 4.00	–	–	> 768 µL/min/mg	–	O=C1c2ccnc(-c3ccccc3)c2CN1c1ccccc1	–
–	7.01	–	–	> 768 µL/min/mg	–	COc1ccccc1-c1nccc2c1CN(c1ccc(C)cc1)C2=O	–
–	< 4.00	–	–	560 µL/min/mg	–	COc1ccccc1-c1nccc2c1CN(c1ccccc1C)C2=O	–
2.84	5.72	–	18 µg/mL (≈ 56.9 µM)	> 768 µL/min/mg	–	COc1ccccc1-c1nccc2c1CN(c1ccccc1)C2=O	–
2.81	4.77	–	4 µg/mL (≈ 12.6 µM)	–	–	COc1ccccc1-c1ccnc2c1CN(c1ccccc1)C2=O	–

More lines, now with the values behind:

SMILES	chromatographic logD [1]	pIC50 [2]	efflux ratio at 1 h, 1 µM [3]	solubility kinetic [4]	microsomal CLint at 1 µM [5]	inhibition [6]	inhibition at 5 min, 10 µM (hERG)
CC(C)(O)COc1ccc(N2Cc3c(ccnc3-c3ccc(F)cc3OCC(F)(F)F)C2=O)cc1	2.67	7.40	7.3	–	–	–	17.6%
CS(=O)(=O)c1ccc(N2Cc3c(ccnc3-c3ccc(F)cc3OCC(F)(F)F)C2=O)cc1	1.86	6.20	32	–	–	–	23.7%
COc1ccccc1-c1nccc2c1CN(C1CCCCC1)C2=O	–	< 4.00	–	–	727 µL/min/mg	–	–
COc1cc(F)ccc1-c1nccc2c1CN(c1ccc(F)cc1)C2=O	–	5.31	–	–	131 µL/min/mg	–	–
COc1ccccc1-n1ncc2c1CN(c1ccccc1)C2=O	2.45	5.36	–	22 µg/mL (≈ 72.1 µM)	–	–	–
COc1ccccc1-c1ccc2c(c1)CN(c1ccccc1)C2=O	–	< 4.00	–	–	–	–	–
CC(C)(O)c1ccc(NC(=O)c2cccc(-c3ccccc3OCC(F)(F)F)n2)cc1	3.6	6.77	2.2	–	–	–	–
O=C1c2ccnc(-c3ccc(F)cc3OC(F)(F)F)c2CN1c1ccc(F)cc1	3	7.31	2.6	< 0.15 µg/mL	14 µL/min/mg	–	51.4%
CC(C)(O)c1ccc(NC(=O)c2ccnn(-c3ccc(F)cc3OCC(F)(F)F)c2=O)cc1	2.55	7.31	6.6	–	–	–	–
CC(C)(O)c1ccc(NC(=O)c2cccc(-c3ccccc3OCC(F)(F)F)c2)cc1	3.16	5.49	3	–	–	–	–
CCCCCCCC(=O)N[C@H](CN1CCCC1)[C@H](O)c1ccc2c(c1)OCCO2	–	–	–	–	–	Active	–
CC(C)(O)c1ccc(NC(=O)c2cccn(-c3ccccc3OCC(F)(F)F)c2=O)cc1	2.12	7.72	15	–	–	–	–
CC(C)(C#N)c1ccc(N2Cc3c(ccnc3-c3ccc(F)cc3OCC(F)(F)F)C2=O)cc1	2.86	7.77	4	–	–	–	39.4%
CN(C)C(=O)c1ccc(N2Cc3c(ccnc3-c3ccc(F)cc3OCC(F)(F)F)C2=O)cc1	1.99	6.15	35	–	–	–	41.8%
CC(C)(O)c1ccc(NC(=O)c2cccc(-c3ccccc3OCC(F)(F)F)c2F)cc1	3.06	7.35	1.9	–	–	–	–
